Reference: ChEMBL document CHEMBL1152854, “Synthesis, characterization and in vitro antibacterial activity of new steroidal 5-en-3-oxazolo and thiazoloquinoxaline” (Eur J Med Chem, 2008)
Values after ≈ are worked out from the molar mass of the structure shown.

Experiments:
[1] = test system: Streptococcus pyogenes; assay: Antimicrobial activity against Streptococcus pyogenes at 200 ug/mL after 24 hrs by disk diffusion method; type: functional; conditions: read-out: IZ
[2] = test system: Staphylococcus aureus; assay: Antimicrobial activity against Staphylococcus aureus at 200 ug/mL after 24 hrs by disk diffusion method; type: functional; conditions: read-out: IZ
[3] = test system: Streptococcus pyogenes; assay: Antimicrobial activity against Streptococcus pyogenes after 24 hrs by broth microdilution method; type: functional, organism-based
[4] = test system: Salmonella typhimurium; assay: Antimicrobial activity against Salmonella Typhimurium at 200 ug/mL after 24 hrs by disk diffusion method; type: functional, Salmonella enterica subsp. enterica serovar Typhimurium; conditions: Salmonella enterica, read-out: IZ
[5] = test system: Salmonella typhimurium; assay: Antimicrobial activity against Salmonella Typhimurium after 24 hrs by broth microdilution method; type: functional, organism-based, Salmonella enterica subsp. enterica serovar Typhimurium; conditions: Salmonella enterica
[6] = test system: Escherichia coli; assay: Antimicrobial activity against Escherichia coli after 24 hrs by broth microdilution method; type: functional, organism-based
[7] = test system: Staphylococcus aureus; assay: Antimicrobial activity against Staphylococcus aureus after 24 hrs by broth microdilution method; type: functional, organism-based
[8] = test system: Escherichia coli; assay: Antimicrobial activity against Escherichia coli at 200 ug/mL after 24 hrs by disk diffusion method; type: functional; conditions: read-out: IZ

Compound | IC50 [3] [µg/mL] | MIC [3] [µg/mL] | IC50 [5] [µg/mL] | MIC [5] [µg/mL] | IC50 [6] [µg/mL] | MIC [6] [µg/mL] | IC50 [7] [µg/mL] | MIC [7] [µg/mL] | zone of inhibition at 200 µg/mL [1] [mm] | zone of inhibition at 200 µg/mL [2] [mm] | zone of inhibition at 200 µg/mL [4] [mm] | zone of inhibition at 200 µg/mL [8] [mm]
CC(C)CCC[C@@H](C)[C@H]1CC[C@H]2[C@@H]3CC=C4C/C(=N/NC(N)=S)CC[C@]4(C)[C@H]3CC[C@]12C | 3.66 (≈ 8 µM) | 6.25 (≈ 13.7 µM) | 3.72 (≈ 8.13 µM) | 6.25 (≈ 13.7 µM) | 3.68 (≈ 8.04 µM) | 6.25 (≈ 13.7 µM) | 3.68 (≈ 8.04 µM) | 6.25 (≈ 13.7 µM) | 13.5 | 15.2 | 14.5 | 15.5
CC(C)CCC[C@@H](C)[C@H]1CC[C@H]2[C@@H]3CC=C4C/C(=N/Nc5nc6nc7ccccc7nc6s5)CC[C@]4(C)[C@H]3CC[C@]12C | 0.52 (≈ 0.891 µM) | 0.78 (≈ 1.34 µM) | 0.28 (≈ 0.48 µM) | 0.39 (≈ 0.668 µM) | 0.24 (≈ 0.411 µM) | 0.39 (≈ 0.668 µM) | 0.54 (≈ 0.925 µM) | 0.78 (≈ 1.34 µM) | 23.2 | 21.2 | 20.4 | 21.4
CC1(C)S[C@@H]2[C@H](NC(=O)[C@H](N)c3ccc(O)cc3)C(=O)N2[C@H]1C(=O)O [AMOXICILLIN] | 1.8 (≈ 4.93 µM) | 3.12 (≈ 8.54 µM) | 1.85 (≈ 5.06 µM) | 3.12 (≈ 8.54 µM) | 1.9 (≈ 5.2 µM) | 3.12 (≈ 8.54 µM) | 1.82 (≈ 4.98 µM) | 3.12 (≈ 8.54 µM) | 18.2 | 17 | 17.2 | 20
CC(C)CCC[C@@H](C)[C@H]1CC[C@H]2[C@@H]3CC=C4C[C@@H](O)CC[C@]4(C)[C@H]3CC[C@]12C [CHOLESTEROL] | – | – | – | – | – | – | – | – | 7.8 | 9.2 | 8.2 | 9

More lines, main results first:

IC50 [3] [µg/mL] | MIC [3] [µg/mL] | IC50 [5] [µg/mL] | MIC [5] [µg/mL] | IC50 [6] [µg/mL] | MIC [6] [µg/mL] | IC50 [7] [µg/mL] | MIC [7] [µg/mL] | Compound | zone of inhibition at 200 µg/mL [1] [mm] | zone of inhibition at 200 µg/mL [2] [mm] | zone of inhibition at 200 µg/mL [4] [mm] | zone of inhibition at 200 µg/mL [8] [mm]
0.54 (≈ 0.951 µM) | 0.78 (≈ 1.37 µM) | 0.48 (≈ 0.845 µM) | 0.78 (≈ 1.37 µM) | 0.26 (≈ 0.458 µM) | 0.39 (≈ 0.687 µM) | 0.48 (≈ 0.845 µM) | 0.78 (≈ 1.37 µM) | CC(C)CCC[C@@H](C)[C@H]1CC[C@H]2[C@@H]3CC=C4C/C(=N/Nc5nc6nc7ccccc7nc6o5)CC[C@]4(C)[C@H]3CC[C@]12C | 23.4 | 22.5 | 24.5 | 23.6
3.68 (≈ 8.33 µM) | 6.25 (≈ 14.1 µM) | 1.94 (≈ 4.39 µM) | 3.12 (≈ 7.06 µM) | 1.88 (≈ 4.26 µM) | 3.12 (≈ 7.06 µM) | 3.65 (≈ 8.26 µM) | 6.25 (≈ 14.1 µM) | CC(C)CCC[C@@H](C)[C@H]1CC[C@H]2[C@@H]3CC=C4C/C(=N/NC(N)=O)CC[C@]4(C)[C@H]3CC[C@]12C | 13.4 | 14.6 | 15.5 | 14.2
